Measurements published in US6617337B1, “Use of nitroxides for the treatment of essential hypertension” (Georgetown University, priority 1997, dated 2003).

Legend:
Assay type in all cases: in vivo, rat
SHR [1] = experiment: TGF response to SNAP microperfused into the macula densa during Tempol microperfusion via the efferent arteriole
Description: Two additional microperfusion studies were undertaken to assess the mechanism of Tempol action in SHR. […] A dose of 10^−6 M […] (SNAP), a NO donor compound, was microperfused into the macula densa of the rats. […] Other NO donor compounds include nitroprusside and nitrates.

SHR and WKY rats [2] = experiment: Maximal TGF responses (proximal stop flow pressure) during orthograde loop of Henle microperfusion of 7-NI (Series 4); conditions: for PSF difference 0-40 nl·min^−1 (maximal TGF response) / PSF during LH perfusion at 0 nl·min^−1 / PSF during LH perfusion at 40 nl·min^−1: ATF+7-NI 10^−4 M, mean ± SEM
Description: (§1) Series 4. Effects of inhibition of bNOS on maximal TGF responses in SHR and WKY. These experiments further examined the SHR hypertension model and whether the enhanced TGF of the SHR kidney is due to a blunted generation of NO by bNOS in the macula densa or whether NOS inhibition is diminished in the SHR model. Groups of SHR and age-matched WKY rats were prepared for in vivo micropuncture, microperfusion, and TGF studies as described in detail previously. In brief, animals were anesthetized with thiobarbital (Inactin, 100 mg·kg^−1; Research Biochemicals, Inc., Natick, Mass.). A catheter was placed in a jugular vein for fluid infusion and in a femoral artery for recording of mean arterial pressure (MAP) from the electrically damped output of a pressure transducer (Statham, Inc.). A tracheotomy tube was inserted and the animals were allowed to breathe spontaneously. The left kidney was exposed by a flank incision, cleaned of connective tissue, and stabilized in a Lucite cup. This kidney was bathed in 0.154 M NaCl maintained at 37° C. After completion of surgery, rats were infused with a solution of 0.154 M NaCl and 1% albumin at 1.5 ml·h^−1 to maintain a euvolemic state. Micropuncture studies were begun after 60 min for stabilization.
(§2) For orthograde microperfusion of the loop of Henle (LH), a micropipette (8 μm OD) containing artificial tubular fluid (ATF) stained with FD&C dye was inserted into a late proximal tubule. Injections of the colored ATF identified the nephron and the direction of flow. An immobile bone wax block was inserted into this micropuncture site via a micropipette (10-15 μm) and connected to a hydraulic drive (Trent Wells, Inc., LaJolla, Calif.) to halt tubular fluid flow. A perfusion micropipette (6-8 μm) containing ATF and test compounds or vehicle was inserted into the proximal tubule downstream from the wax block and connected to a nanoliter perfusion pump (WPI, Sarasota, Fla.). A pressure micropipette (1-2 μm) was inserted into the proximal tubule upstream from the wax block to measure proximal stop flow pressure (PSF). Changes in PSF are an index of changes in glomerular capillary hydraulic pressure (PGC). Measurements of PSF were made in each nephron during zero loop perfusion and during perfusion with ATF at 40 nl·min^−1, which produces a maximal TGF response, defined as the difference between PSF values recorded during perfusion of the loop with ATF at 0 and 40 nl·min^−1.
The maximal TGF responses were determined in SHR (n=4) and WKY rats (n=4) to perfusion of the LH with ATF+vehicle and contrasted with the maximal TGF responses during perfusion with ATF+7-nitroindazole (7-NI; 10^−4 M).

SHR rats = experiment: TGF response to 7-NI microperfused into the macula densa before and during Tempol microperfusion into efferent arterioles
Description: This also implies that it had normalized the action of NO in this setting, thereby correcting the defect in the NO action in hypertension and restoring normal vascular control. This is filly consistent with its action on a free radical scavenging agent that thereby protects NO from radical attack.

SHR [3] = experiment: Role of NO in the MAP response to constant Tempol infusion (L-NAME or norepinephrine pretreatment); conditions: for Change in MAP at 50 min (time control): separate group of SHR, NS
SHR and WKY rats [4] = experiment: Maximal TGF responses during orthograde microperfusion of L-arginine (Series 5); conditions: for PSF difference 0-40 nl·min^−1 (maximal TGF response) / PSF during LH perfusion at 0 nl·min^−1 / PSF during LH perfusion at 40 nl·min^−1: ATF+L-arginine 10^−3 M, mean ± SEM
Description: as §1, §2
Series 5: Maximal TGF responses during microperfusion of L-arginine in SHR and WKY. L-arginine had previously been shown not to lower blood pressure or the glomerular filtration rate in the SHR model. However, L-arginine can restore a TGF response to NOS blockade in tested rats adapted to low salt intake. Therefore, the role of L-arginine was tested in the SHR model. This series examined the effect of a reduced delivery of L-arginine to the macula densa on NO generation, as assessed in Series 4. Groups of SHR (n=4) and WKY rats (n=3) were prepared for microperfusion. PSF was recorded during orthograde LH perfusion at 0 and 40 nl·min^−1 with ATF+vehicle and ATF+L-arginine (10^−3 M). (Previous studies had shown that this was a maximally effective dose.)

CC(=O)N[C@H](C(=O)O)C(C)(C)SN=O (racemic) [SNAP, 5-nitroacetylpenacillamine]
Blunting of TGF response (SHR [1]; SNAP 10^−6 M during Tempol 10^−4 M microperfusion via efferent arteriole, p<0.01): more than 25%
Effect of SNAP dose alone on TGF (SHR [1]; SNAP 10^−6 M into macula densa, without Tempol): just subthreshold

O=[N+]([O-])c1cccc2cn[nH]c12 [7-NI, 7-nitroindazole]
Effect on TGF responses (SHR and WKY rats [2]; SHR, 7-NI added to orthograde LH perfusate): no significant effects
PSF difference 0-40 nl·min^−1 (maximal TGF response) (SHR and WKY rats [2]; SHR): 12.5 ± 0.6 mm Hg
PSF during LH perfusion at 0 nl·min^−1 (SHR and WKY rats [2]; SHR): 41.0 ± 1.0 mm Hg
PSF during LH perfusion at 40 nl·min^−1 (SHR and WKY rats [2]; SHR): 29.3 ± 0.7 mm Hg
Average increase in maximal TGF response (SHR and WKY rats [2]; WKY, 7-NI added to orthograde LH perfusate): 39%
PSF difference 0-40 nl·min^−1 (maximal TGF response) (SHR and WKY rats [2]; WKY): 13.2 ± 0.7 mm Hg
PSF during LH perfusion at 0 nl·min^−1 (SHR and WKY rats [2]; WKY): 38.1 ± 0.8 mm Hg
PSF during LH perfusion at 40 nl·min^−1 (SHR and WKY rats [2]; WKY): 25.0 ± 1.2 mm Hg
Increase in TGF in the presence of 7-NI (SHR rats; 7-NI 10^−4 M during Tempol 10^−4 M microperfusion into efferent arterioles): greater than 25%
TGF response to 7-NI before Tempol (SHR rats; 7-NI 10^−4 M into macula densa, before Tempol): no significant TGF response

COC(=O)[C@@H](N)CCCNC(=N)N[N+](=O)[O-] [L-NAME]
Increase in MAP (SHR [3]; SHR, twenty minutes of L-NAME infusion alone): 18%
MAP after L-NAME infusion alone (SHR [3]; SHR, twenty minutes of L-NAME infusion, from 158±11): 187±8 mm Hg
Change in MAP at 50 min (time control) (SHR [3]; L-NAME infusion): 0.3±3.3%

N=C(N)NCCC[C@H](N)C(=O)O [L-arginine]
PSF difference 0-40 nl·min^−1 (maximal TGF response) (SHR and WKY rats [4]; SHR): 10.6 ± 0.7 mm Hg
PSF during LH perfusion at 0 nl·min^−1 (SHR and WKY rats [4]; SHR): 41.0 ± 1.2 mm Hg
PSF during LH perfusion at 40 nl·min^−1 (SHR and WKY rats [4]; SHR): 30.4 ± 0.7 mm Hg
Effect on TGF responses (SHR and WKY rats [4]; SHR, L-arginine added to orthograde LH perfusate): no significant effects
PSF difference 0-40 nl·min^−1 (maximal TGF response) (SHR and WKY rats [4]; WKY): 6.3 ± 0.4 mm Hg
PSF during LH perfusion at 0 nl·min^−1 (SHR and WKY rats [4]; WKY): 36.1 ± 0.7 mm Hg
PSF during LH perfusion at 40 nl·min^−1 (SHR and WKY rats [4]; WKY): 29.8 ± 0.5 mm Hg
Average blunting of TGF responses (SHR and WKY rats [4]; WKY, L-arginine added to orthograde LH perfusate): 18%

NC[C@H](O)c1ccc(O)c(O)c1 [Norepinephrine, norepinephrine]
Increase in MAP (SHR [3]; SHR, norepinephrine 31 nmol·kg^−1·min^−1): 15%
MAP after norepinephrine infusion (SHR [3]; SHR, norepinephrine 31 nmol·kg^−1·min^−1, from 164±4): 188±7 mm Hg
Change in MAP at 50 min (time control) (SHR [3]; norepinephrine infusion): 2.0±0.0%
